Laboratory results: patent US7495018B2, “Substituted 1,3-thiazole compounds, their production and use” (Takeda Pharmaceutical Company Limited, priority 2000, dated 2009)

| Structure (SMILES) | melting point |
| --- | --- |
| Cc1cccc(-c2nc(CCc3ccccc3)sc2-c2ccnc(C)c2)c1 [Example Compound 14-8, 4-(3-methylphenyl)-5-(2-methyl-4-pyridyl)-2-(2-phenylethyl)-1,3-thiazole] | 64 to 65 °C |
| CCc1nc(-c2cccc(C)c2)c(-c2ccnc(N3CCOCC3)c2)s1 [Example Compound 36-9, 2-ethyl-4-(3-methylphenyl)-5-(2-morpholino-4-pyridyl)-1,3-thiazole] | 69 to 71 °C |
| CCc1nc(-c2ccccc2)c(-c2ccnc(N)c2)s1 [Example Compound 20-2, 4-(2-ethyl-4-phenyl-1,3-thiazol-5-yl)-2-pyridylamine] | 158 to 159 °C |
| CCC(=O)Nc1cc(-c2sc(C(C)=O)nc2-c2cccc(Cl)c2)ccn1 [Example 107, N-[4-[2-acetyl-4-(3-chlorophenyl)-1,3-thiazol-5-yl]-2-pyridyl]propionamide] | 115 to 117 °C |
| CCc1cccc(-c2nc(CC)sc2-c2ccnc(NC(C)=O)c2)c1 [Example 82-7, N-[4-[2-ethyl-4-(3-ethylphenyl)-1,3-thiazol-5-yl]-2-pyridyl]acetamide] | 112 to 113 °C |
| CCc1nc(-c2cccc(Cl)c2)c(-c2ccnc(NC3CCCC3)c2)s1 [Example Compound 36-11, 4-[4-(3-chlorophenyl)-2-ethyl-1,3-thiazol-5-yl]-N-cyclopentyl-2-pyridylamine] | 110 to 111 °C |
| CC(=O)Nc1cc(-c2sc(C)nc2-c2cccc(Cl)c2)ccn1 [Example Compound 30-1, N-[4-[4-(3-chlorophenyl)-2-methyl-1,3-thiazol-5-yl]-2-pyridyl]acetamide] | 112 to 115 °C |
| CCOC(=O)Cc1nc(-c2cccc(Cl)c2)c(-c2ccnc(N)c2)s1 [Example Compound 21-2, Ethyl [5-(2-amino-4-pyridyl)-4-(3-chlorophenyl)-1,3-thiazol-2-yl]acetate] | 154 to 155 °C |
| Cc1cccc(-c2nc(-c3ccc(S(C)(=O)=O)cc3)sc2-c2ccnc(N3CCOCC3)c2)c1 [Example Compound 36-8, 4-(3-methylphenyl)-2-(4-methylsulfonylphenyl)-5-(2-morpholino-4-pyridyl)-1,3-thiazole] | 200 to 202 °C |
| Cc1cccc(-c2nc(C(C)OC(=O)c3ccccc3)sc2-c2ccnc(N)c2)c1 (stereo not shown) [Example 99-2, 1-[5-(2-amino-4-pyridyl)-4-(3-methylphenyl)-1,3thiazol-2-yl]ethyl benzoate] | 89 to 91 °C |
| CCc1nc(-c2cccc(C(C)C)c2)c(-c2ccnc(NC(C)=O)c2)s1 [Example 82-8, N-[4-[2-ethyl-4-[3-(1-methylethyl)phenyl]-1,3thiazol-5-yl]-2-pyridyl]acetamide] | 116 to 117 °C |
| CC(=O)Nc1cc(-c2sc(C(C)OC(=O)c3ccccc3)nc2-c2cccc(C)c2)ccn1 (stereo not shown) [Example 110, 1-[5-(2-acetylamino-4-pyridyl)-4-(3-methylphenyl)-1,3-thiazol-2-yl]ethyl benzoate] | 110 to 113 °C |
| COc1cccc(-c2nc(N)sc2-c2ccnc(F)c2)c1 [Example Compound 7-1, [5-(2-fluoro-4-pyridyl)-4-(3-methoxyphenyl)-1,3-thiazol-2-yl]amine] | 190 to 191 °C |
| Cc1cccc(-c2nc(CC(F)(F)F)sc2-c2ccnc(N)c2)c1 [Example Compound 18-3, 4-[4-(3-methylphenyl)-2-(2,2,2-trifluoroethyl)-1,3-thiazol-5-yl]-2-pyridylamine] | 131 to 132 °C |
| Cc1cccc(-c2nc(C(C)(F)F)sc2-c2ccnc(N)c2)c1 [Example 113-2, 4-[2-(1,1-difluoroethyl)-4-(3-methylphenyl)-1,3-thiazol-5-yl]-2-pyridylamine] | 140 to 141 °C |
| CCc1nc(-c2cccc(Cl)c2)c(-c2ccnc(N)c2)s1 [Example Compound 20-1, 4-[2-ethyl-4-(3-chlorophenyl)-1,3-thiazol-5-yl]-2-pyridylamine] | 132 to 133 °C |
| CCCc1cccc(-c2nc(CC)sc2-c2ccnc(NC(=O)CC)c2)c1 [Example 84-8, N-[4-[2-ethyl-4-(3-propylphenyl)-1,3-thiazol-5-yl]-2-pyridyl]propionamide] | 124 to 125 °C |
| Cc1cccc(-c2nc(NC(=O)OCCCl)sc2-c2ccnc(C)c2)c1 [Example Compound 62, 2-chloroethyl[4-(3-methylphenyl)-5-(2-methyl-4-pyridyl)-1,3-thiazol-2-yl]carbamate] | 156 to 158 °C |
| CCCc1nc(-c2cccc(Cl)c2)c(-c2ccnc(NC(=O)CC)c2)s1 [Example Compound 30-9, N-[4-[4-(3-chlorophenyl)-2-propyl-1,3-thiazol-5-yl]-2-pyridyl]propionamide] | 103 to 104 °C |
| CCC(=O)Nc1cc(-c2sc(CC)nc2-c2ccc(Cl)cc2)ccn1 [Example 84-6, N-[4-[4-(4-chlorophenyl)-2-ethyl-1,3-thiazol-5-yl]-2-pyridyl]propionamide] | 152 to 153 °C |

| Structure (SMILES) | melting point |
| --- | --- |
| CCc1nc(-c2ccccc2)c(-c2ccnc(NC(=O)OC(C)(C)C)c2)s1 [Example Compound 79-1, 5-[2-(tert-butoxycarbonylamino)-4-pyridyl]-2-ethyl-4-phenyl-1,3-thiazole] | 154 to 155 °C |
| Cc1cc(C)cc(-c2nc(-c3ccc([S+](C)[O-])cc3)sc2-c2ccnc(C)c2)c1 (stereo not shown) [Example Compound 56-1, 4-(3,5-dimethylphenyl)-5-(2-methyl-4-pyridyl)-2-(4-methylsulfinylphenyl)-1,3-thiazole] | 151 to 153 °C |
| Cc1cccc(-c2nc(NC(=O)c3ccc(C)nc3)sc2-c2ccnc(NC3CCCC3)c2)c1 [Example Compound 46-2, N-[5-(2-cyclopentylamino-4-pyridyl)-4-(3-methylphenyl)-1,3-thiazol-2-yl]-6-methylnicotinamide] | 213 to 214 °C |
| Cc1cccc(-c2nc(NC(=O)c3cccnc3)sc2-c2ccnc(NC3CCCCC3)c2)c1 [Example Compound 42-3, N-[5-(2-cyclohexylamino-4-pyridyl)-4-(3-methylphenyl)-1,3-thiazol-2-yl]nicotinamide] | 201 to 203 °C |
| CCc1nc(-c2ccc(F)c(C)c2)c(-c2ccnc(NC(C)=O)c2)s1 [Example 82-4, N-[4-[2-ethyl-4-(4-fluoro-3-methylphenyl)-1,3-thiazol-5-yl]-2-pyridyl]acetamide] | 142 to 143 °C |
| Cc1cc(-c2sc(NC(=O)c3cccnc3)nc2-c2ccc(F)cc2)ccn1 [Example Compound 42-7, N-[4-(4-fluorophenyl)-5-(2-methyl-4-pyridyl)-1,3-thiazol-2-yl]nicotinamide] | 261 to 262 °C |
| COc1ccc(-c2nc(NC(C)=O)sc2-c2ccnc(N)c2)cc1 [Example Compound 50, N-[5-(2-amino-4-pyridyl)-4-(4-methoxyphenyl)-1,3-thiazol-2-yl]acetamide] | 247 to 250 °C |
| CCc1nc(-c2cccs2)c(-c2ccnc(N)c2)s1 [Example Compound 20-12, 4-[2-ethyl-4-(2-thienyl)-1,3-thiazol-5-yl]-2-pyridylamine] | 159 to 160 °C |
| CCC(=O)Nc1cc(-c2sc(CC)nc2-c2ccccc2)ccn1 [Example 84-1, N-[4-(2-ethyl-4-phenyl-1,3-thiazol-5-yl)-2-pyridyl]propionamide] | 139 to 140 °C |
| CCCc1nc(-c2cccc(Cl)c2)c(-c2ccnc(NC(C)=O)c2)s1 [Example Compound 30-3, N-[4-[4-(3-chlorophenyl)-2-propyl-1,3-thiazol-5-yl]-2-pyridyl]acetamide] | 144 to 145 °C |
| Cc1cccc(-c2nc(N3CCN(C)CC3)sc2-c2ccnc(C)c2)c1 [Example Compound 14-13, 4-(3-methylphenyl)-2-(4-methylpiperazin-1-yl)-5-(2-methyl-4-pyridyl)-1,3-thiazole] | 115 to 116 °C |
| Cc1cccc(-c2nc(-c3ccc(S(C)(=O)=O)cc3)sc2-c2ccnc(N(C)C3CCCCC3)c2)c1 [Example Compound 37-2, N-cyclohexyl-N-methyl-4-[4-(3-methylphenyl)-2-(4-methylsulfonylphenyl)-1,3-thiazol-5-yl]-2-pyridylamine] | 173 to 174 °C |
| COc1ccc(C(=O)Nc2nc(-c3cccc(C)c3)c(-c3ccnc(NC4CCCC4)c3)s2)cn1 [Example Compound 48-2, N-[5-(2-cyclopentylamino-4-pyridyl)-4-(3-methylphenyl)-1,3-thiazol-2-yl]-6-methoxynicotinamide] | 219 to 221 °C |
| CCC(=O)Nc1cc(-c2sc(C)nc2-c2cccc(Cl)c2)ccn1 [Example Compound 30-7, N-[4-[4-(3-chlorophenyl)-2-methyl-1,3-thiazol-5-yl]-2-pyridyl]propionamide] | 134 to 135 °C |
| CCC(=O)Nc1cc(-c2sc(CC)nc2-c2cccc(F)c2)ccn1 [Example 84-5, N-[4-[2-ethyl-4-(3-fluorophenyl)-1,3-thiazol-5-yl]-2-pyridyl]propionamide] | 121 to 122 °C |
| Cc1cccc(-c2nc(NC(=O)Nc3ccccc3)sc2-c2ccnc(C)c2)c1 [Example Compound 53-4, N-[4-(3-methylphenyl)-5-(2-methyl-4-pyridyl)-1,3-thiazol-2-yl]-N′-phenylurea] | 168 to 169 °C |
| Cc1cccc(-c2nc(-c3ccc(S(C)(=O)=O)cc3)sc2-c2ccnc(N3CCCC3)c2)c1 [Example Compound 37-4, 4-(3-methylphenyl)-2-(4-methylsulfonylphenyl)-5-[2-(1-pyrrolidinyl)-4-pyridyl]-1,3-thiazole] | 199 to 201 °C |
| Cc1cc(C)cc(-c2nc(-c3ccc([S+](C)[O-])cc3)sc2-c2cc(C)nc(C)c2)c1 (stereo not shown) [Example Compound 56-2, 4-(3,5-dimethylphenyl)-5-(2,6-dimethyl-4-pyridyl)-2-(4-methylsulfinylphenyl)-1,3-thiazole] | 151 to 154 °C |
| Cc1cccc(-c2nc(N)sc2-c2ccnc(C)c2)c1 [Example Compound 7-4, [4-(3-methylphenyl)-5-(2-methyl-4-pyridyl)-1,3-thiazol-2-yl]amine] | 205 to 206 °C |
| COc1ccc(C(=O)Nc2nc(-c3cccc(C)c3)c(-c3ccnc(C)c3)s2)cn1 [Example Compound 47, 6-methoxy-N-[4-(3-methylphenyl)-5-(2-methyl-4-pyridyl)-1,3-thiazol-2-yl]nicotinamide] | 224 to 226 °C |
